Measurements published in patent publication US20100311714A1, “1H-IMIDAZO[4,5-c]QUINOLINONE COMPOUNDS” (priority 2009, published 2010).
Where two headings read alike, the source gives them in different places.

Legend:
[1] = tested on: PKB Ser473 phosphorylation in Rat1-myr-HA-p110 delta cells; test: Reverse protein array, PKB Ser473 phosphorylation in Rat1-myr-HA-p110 delta cells; type: cell-based; conditions: Rattus norvegicus, 0.5 h, 30 minutes compound incubation, read-out: p-PKB/IC50_delta
[2] = tested on: S6 Ribosomal Protein phosphorylation Ser235/236 in TSC1 null mouse embryo fibroblast (MEF) cells; test: Reverse protein array, S6 Ribosomal Protein phosphorylation in TSC1 null MEF cells; type: cell-based; conditions: 1 h, TSC1-/- MEFs, 60 minutes
Outline: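 Phospho-S6 (Ser235/236) was quantified by reverse protein array of cell lysates with a phospho-specific primary antibody. […]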

| SMILES | IC50 [1] [nM] | IC50 ([2]; read-out: p-S6 IC50) [nM] | IC50 ([2]; read-out: p-S6) [nM] |
| --- | --- | --- | --- |
| CCNc1cc(-c2ccc3ncc4c(c3c2)n(-c2ccc(N3CCC3)nc2C)c(=O)n4C)cnc1CO [Example 23.8, 1-(6-Azetidin-1-yl-2-methyl-pyridin-3-yl)-8-(5-ethylamino-6-hydroxymethyl-pyridin-3-yl)-3-methyl-1,3-dihydro-imidazo[4,5-c]quinolin-2-one] | 10.2 | 6 | – |
| COc1cc(-c2ccc3ncc4c(c3c2)n(-c2ccc(N3CC(O)C3)nc2C)c(=O)n4C)cnc1CO [Example 29.5, 1-[6-(3-Hydroxy-azetidin-1-yl)-2-methyl-pyridin-3-yl]-8-(6-hydroxymethyl-5-methoxy-pyridin-3-yl)-3-methyl-1,3-dihydro-imidazo[4,5-c]quinolin-2-one] | 401 | 39.1 | – |
| Cc1ncccc1-n1c(=O)n(C)c2cnc3ccc(-c4cncc(N5CCC5)c4)cc3c21 [Example 2.29, 8-(5-Azetidin-1-yl-pyridin-3-yl)-3-methyl-1-(2-methyl-pyridin-3-yl)-1,3-dihydro-imidazo[4,5-c]quinolin-2-one] | 122 | 5 | – |
| CNc1ncc(-c2ccc3ncc4c(c3c2)n(-c2ccc(N3CC[C@H](O)C3)nc2C)c(=O)n4C)cc1C(F)(F)F [Example 32.5, 1-[6-((S)-3-Hydroxy-pyrrolidin-1-yl)-2-methyl-pyridin-3-yl]-3-methyl-8-(6-methylamino-5-trifluoromethyl-pyridin-3-yl)-1,3-dihydro-imidazo[4,5-c]quinolin-2-one] | 16 | 1 | – |
| Cn1c(=O)n(-c2cccnc2F)c2c3cc(-c4cnc(N)c(C(F)(F)F)c4)ccc3ncc21 [Example 6.2, 8-(6-Amino-5-trifluoromethyl-pyridin-3-yl)-1-(2-fluoro-pyridin-3-yl)-3-methyl-1,3-dihydro-imidazo[4,5-c]quinolin-2-one] | 11.5 | – | 1.47 |
| CNc1ncc(-c2ccc3ncc4c(c3c2)n(-c2ccc(N3CC(O)C3)nc2C)c(=O)n4C)cc1C(F)(F)F [Example 29.4, 1-[6-(3-Hydroxy-azetidin-1-yl)-2-methyl-pyridin-3-yl]-3-methyl-8-(6-methylamino-5-trifluoromethyl-pyridin-3-yl)-1,3-dihydro-imidazo[4,5-c]quinolin-2-one] | 18.3 | 1.7 | – |
| Cc1nc(N2CCC2)ccc1-n1c(=O)n(C)c2cnc3ccc(-c4cncc(N5CCC5)c4)cc3c21 [Example 23.1, 1-(6-Azetidin-1-yl-2-methyl-pyridin-3-yl)-8-(5-azetidin-1-yl-pyridin-3-yl)-3-methyl-1,3-dihydro-imidazo[4,5-c]quinolin-2-one] | 66.9 | 2 | – |
| Cc1nc(N2CCCC2)ccc1-n1c(=O)n(C)c2cnc3ccc(-c4cncc(C(C)(C)O)c4)cc3c21 [Example 25.3, 8-[5-(1-Hydroxy-1-methyl-ethyl)-pyridin-3-yl]-3-methyl-1-(2-methyl-6-pyrrolidin-1-yl-pyridin-3-yl)-1,3-dihydro-imidazo[4,5-c]quinolin-2-one] | 25.4 | < 0.457 | – |
| CNc1ncc(-c2ccc3ncc4c(c3c2)n(-c2ccc(N3CC(O)C3)nc2C)c(=O)n4C)cc1F [Example 29.3, 8-(5-Fluoro-6-methylamino-pyridin-3-yl)-1-[6-(3-hydroxy-azetidin-1-yl)-2-methyl-pyridin-3-yl]-3-methyl-1,3-dihydro-imidazo[4,5-c]quinolin-2-one] | 65.3 | 7.8 | – |
| Cc1nc(C(F)(F)F)ccc1-n1c(=O)n(C)c2cnc3ccc(-c4cncc(C(C)(C)O)c4)cc3c21 [Example 33.1, 8-[5-(1-Hydroxy-1-methyl-ethyl)-pyridin-3-yl]-3-methyl-1-(2-methyl-6-trifluoromethyl-pyridin-3-yl)-1,3-dihydro-imidazo[4,5-c]quinolin-2-one] | 43 | 2 | – |
| Cc1ncccc1-n1c(=O)n(C)c2cnc3ccc(-c4ccc(CO)nc4)cc3c21 [Example 2.6, 8-(6-Hydroxymethyl-pyridin-3-yl)-3-methyl-1-(2-methyl-pyridin-3-yl)-1,3-dihydro-imidazo[4,5-c]quinolin-2-one] | 74.7 | – | 66.1 |
| CNc1ncc(-c2ccc3ncc4c(c3c2)n(-c2ccc(N3CC[C@H](O)C3)nc2C)c(=O)n4C)cc1F [Example 32.2, 8-(5-Fluoro-6-methylamino-pyridin-3-yl)-1-[6-((S)-3-hydroxy-pyrrolidin-1-yl)-2-methyl-pyridin-3-yl]-3-methyl-1,3-dihydro-imidazo[4,5-c]quinolin-2-one] | 30.5 | 1 | – |
| COc1ncc(-c2ccc3ncc4c(c3c2)n(-c2ccc(N3CC[C@H](O)C3)nc2C)c(=O)n4C)c(OC)n1 [Example 32.3, 8-(2,4-Dimethoxy-pyrimidin-5-yl)-1-[6-((S)-3-hydroxy-pyrrolidin-1-yl)-2-methyl-pyridin-3-yl]-3-methyl-1,3-dihydro-imidazo[4,5-c]quinolin-2-one] | 59 | 4 | – |
| Cc1ncccc1-n1c(=O)n(C)c2cnc3ccc(-c4ccc(N)nc4)cc3c21 [Example 2.7, 8-(6-Amino-pyridin-3-yl)-3-methyl-1-(2-methyl-pyridin-3-yl)-1,3-dihydro-imidazo[4,5-c]quinolin-2-one] | 12.2 | – | 12.4 |
| CNc1cc(-c2ccc3ncc4c(c3c2)n(-c2cccnc2C)c(=O)n4C)cnc1C [Example 2.32, 3-Methyl-8-(6-methyl-5-methylamino-pyridin-3-yl)-1-(2-methyl-pyridin-3-yl)-1,3-dihydro-imidazo[4,5-c]quinolin-2-one] | 33.7 | 2 | – |
| CCOc1ccc(-c2ccc3ncc4c(c3c2)n(-c2ccc(N3CCNCC3)nc2OC)c(=O)n4C)cn1 [Example 9.1, 8-(6-Ethoxy-pyridin-3-yl)-1-(2-methoxy-6-piperazin-1-yl-pyridin-3-yl)-3-methyl-1,3-dihydro-imidazo[4,5-c]quinolin-2-one] | 32.8 | – | 13.5 |
| CCNc1ncc(-c2ccc3ncc4c(c3c2)n(-c2ccc(N3CC[C@@H](O)C3)nc2C)c(=O)n4C)cc1C(F)(F)F [Example 34.2, 8-(6-Ethylamino-5-trifluoromethyl-pyridin-3-yl)-1-[6-((R)-3-hydroxy-pyrrolidin-1-yl)-2-methyl-pyridin-3-yl]-3-methyl-1,3-dihydro-imidazo[4,5-c]quinolin-2-one] | 39.9 | 1.9 | – |
| COc1ncc(-c2ccc3ncc4c(c3c2)n(-c2ccc(N3CC(O)C3)nc2C)c(=O)n4C)c(OC)n1 [Example 29.6, 8-(2,4-Dimethoxy-pyrimidin-5-yl)-1-[6-(3-hydroxy-azetidin-1-yl)-2-methyl-pyridin-3-yl]-3-methyl-1,3-dihydro-imidazo[4,5-c]quinolin-2-one] | 119 | 5 | – |
| CCOc1cc(-c2ccc3ncc4c(c3c2)n(-c2ccc(OCCOC)nc2C)c(=O)n4C)cnc1COC [Example 22.1, 8-(5-Ethoxy-6-methoxymethyl-pyridin-3-yl)-1-[6-(2-methoxy-ethoxy)-2-methyl-pyridin-3-yl]-3-methyl-1,3-dihydro-imidazo[4,5-c]quinolin-2-one] | 207 | 7 | – |
| COc1nc(N2CCNCC2)ccc1-n1c(=O)n(C)c2cnc3ccc(-c4cnc(N)c(C(F)(F)F)c4)cc3c21 [Example 9.2, 8-(6-Amino-5-trifluoromethyl-pyridin-3-yl)-1-(2-methoxy-6-piperazin-1-yl-pyridin-3-yl)-3-methyl-1,3-dihydro-imidazo[4,5-c]quinolin-2-one] | 23.9 | – | 3.35 |
| Cc1cccnc1-n1c(=O)n(C)c2cnc3ccc(-c4ccc(C(N)=O)cc4)cc3c21 [Example 3.3, 4-[3-Methyl-1-(3-methyl-pyridin-2-yl)-2-oxo-2,3-dihydro-1H-imidazo[4,5-c]quinolin-8-yl]-benzamide] | 620 | – | 297 |
| CCOc1ncc(-c2ccc3ncc4c(c3c2)n(-c2cccnc2C)c(=O)n4C)cn1 [Example 2.5, 8-(2-Ethoxy-pyrimidin-5-yl)-3-methyl-1-(2-methyl-pyridin-3-yl)-1,3-dihydro-imidazo[4,5-c]quinolin-2-one] | 204 | – | 237 |
| Cc1nc(N(C)CCO)ccc1-n1c(=O)n(C)c2cnc3ccc(-c4cnc(N)c(C(F)(F)F)c4)cc3c21 [Example 26.1, 8-(6-Amino-5-trifluoromethyl-pyridin-3-yl)-1-{6-[(2-hydroxy-ethyl)-methyl-amino]-2-methyl-pyridin-3-yl}-3-methyl-1,3-dihydro-imidazo[4,5-c]quinolin-2-one] | < 4.57 | < 0.457 | – |
| COC1CCN(c2ccc(-n3c(=O)n(C)c4cnc5ccc(-c6cncc(C(C)(C)O)c6)cc5c43)c(C)n2)C1 (stereo not drawn) [Example 28.1, 8-[5-(1-Hydroxy-1-methyl-ethyl)-pyridin-3-yl]-1-[6-(3-methoxy-pyrrolidin-1-yl)-2-methyl-pyridin-3-yl]-3-methyl-1,3-dihydro-imidazo[4,5-c]quinolin-2-one] | 39.9 | 1 | – |
| CNc1cncc(-c2ccc3ncc4c(c3c2)n(-c2cccnc2C)c(=O)n4C)c1 [Example 2.26, 3-Methyl-8-(5-methylamino-pyridin-3-yl)-1-(2-methyl-pyridin-3-yl)-1,3-dihydro-imidazo[4,5-c]quinolin-2-one] | 67.3 | 6 | – |
| CNc1ccc(-c2ccc3ncc4c(c3c2)n(-c2cccnc2C)c(=O)n4C)cn1 [Example 2.13, 3-Methyl-8-(6-methylamino-pyridin-3-yl)-1-(2-methyl-pyridin-3-yl)-1,3-dihydro-imidazo[4,5-c]quinolin-2-one] | 36.8 | – | 2.78 |
| Cc1nc(F)ccc1-n1c(=O)n(C)c2cnc3ccc(-c4cnc(N)c(C(F)(F)F)c4)cc3c21 [Example 7.1, 8-(6-Amino-5-trifluoromethyl-pyridin-3-yl)-1-(6-fluoro-2-methyl-pyridin-3-yl)-3-methyl-1,3-dihydro-imidazo[4,5-c]quinolin-2-one] | 24.7 | – | 2.23 |
